According to patent US20230145835A1, “Modulators of Alpha-4-beta-7 Integrin and MAdCAM” (48HD Biopharma Inc., priority 2021, published 2023):
Numbered stars: 1 amine (or outer) side, 2 acyl side, 3 side chain; on linkers, the order of the positions; unused ones are H or OH. Bridge positions count the residues as written; N and C are the ends. Peptide text beside a SMILES is read from it. X3 = O=C(/C=N/OCCCCCCOc1cc(C[*:2])cc(C[*:3])c1)[*:1]; X2 = O=C(C=NOCc1cc(C[*:2])cc(C[*:3])c1)[*:1]

Key:
[1] = target: T1, rh-integrin α4β7/LPAM-1 (Homo sapiens, UniProt P13612+P26010); test: Competition Binding Assay (competition ELISA, Example 1)
T1 sequence (P13612 34-977 limits assumed): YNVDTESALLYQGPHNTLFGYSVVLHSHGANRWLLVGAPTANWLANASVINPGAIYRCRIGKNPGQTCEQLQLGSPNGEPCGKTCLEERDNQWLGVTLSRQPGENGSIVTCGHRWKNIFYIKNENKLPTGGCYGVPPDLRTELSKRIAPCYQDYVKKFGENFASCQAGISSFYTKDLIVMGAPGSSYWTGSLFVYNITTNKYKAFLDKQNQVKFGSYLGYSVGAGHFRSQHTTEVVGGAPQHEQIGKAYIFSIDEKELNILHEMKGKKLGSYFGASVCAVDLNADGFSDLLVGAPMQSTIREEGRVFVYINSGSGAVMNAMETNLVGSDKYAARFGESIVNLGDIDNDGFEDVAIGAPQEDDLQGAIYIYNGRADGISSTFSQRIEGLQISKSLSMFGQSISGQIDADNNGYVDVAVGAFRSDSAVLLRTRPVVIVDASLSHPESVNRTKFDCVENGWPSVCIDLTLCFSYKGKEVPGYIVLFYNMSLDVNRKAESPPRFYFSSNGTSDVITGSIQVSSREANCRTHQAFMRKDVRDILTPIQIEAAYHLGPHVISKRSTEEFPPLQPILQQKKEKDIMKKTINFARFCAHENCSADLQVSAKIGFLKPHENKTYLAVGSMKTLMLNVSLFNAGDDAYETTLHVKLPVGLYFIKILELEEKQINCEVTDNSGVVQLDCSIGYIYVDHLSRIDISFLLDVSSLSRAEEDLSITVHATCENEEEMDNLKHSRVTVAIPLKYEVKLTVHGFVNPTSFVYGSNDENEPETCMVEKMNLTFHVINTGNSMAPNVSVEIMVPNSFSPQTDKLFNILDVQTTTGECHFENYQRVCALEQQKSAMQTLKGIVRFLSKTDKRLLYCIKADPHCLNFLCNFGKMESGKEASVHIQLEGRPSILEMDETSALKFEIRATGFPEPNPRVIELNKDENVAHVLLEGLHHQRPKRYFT
T1 sequence (P26010 20-723 limits assumed): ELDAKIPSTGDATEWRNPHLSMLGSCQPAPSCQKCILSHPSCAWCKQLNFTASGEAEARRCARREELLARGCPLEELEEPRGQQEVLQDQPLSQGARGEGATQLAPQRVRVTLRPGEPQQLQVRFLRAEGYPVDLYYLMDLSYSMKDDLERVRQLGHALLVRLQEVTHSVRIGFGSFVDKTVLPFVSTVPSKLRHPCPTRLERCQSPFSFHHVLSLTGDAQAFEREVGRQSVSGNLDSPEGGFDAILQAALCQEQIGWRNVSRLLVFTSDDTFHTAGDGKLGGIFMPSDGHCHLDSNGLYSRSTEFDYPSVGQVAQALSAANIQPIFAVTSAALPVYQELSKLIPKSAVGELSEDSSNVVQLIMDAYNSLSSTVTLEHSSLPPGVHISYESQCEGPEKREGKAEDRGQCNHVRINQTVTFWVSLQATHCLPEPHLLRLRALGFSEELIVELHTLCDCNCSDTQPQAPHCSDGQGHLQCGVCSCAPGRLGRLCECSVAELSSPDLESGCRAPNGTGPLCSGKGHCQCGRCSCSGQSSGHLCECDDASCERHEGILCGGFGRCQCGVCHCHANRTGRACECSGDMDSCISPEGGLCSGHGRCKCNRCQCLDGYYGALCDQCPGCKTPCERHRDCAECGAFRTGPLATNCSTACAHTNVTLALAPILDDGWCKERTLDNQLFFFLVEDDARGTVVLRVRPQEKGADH

[2] = target: T1, rh-integrin α4β7/LPAM-1; test: α4β7-MadCAM Competition ELISA (Example 4); format: binding; settings: IC50, competition ELISA, 4 μg/mL α4β7 coated, MAdCAM and peptide mixture, 28° C.
Procedure: After washing with wash buffer, 200 μL assay buffer was added to each well and incubated for one hour at 28° C. After another wash with wash buffer, 100 μL of a MAdCAM and peptide mixture in assay buffer was added to each well and incubated for one hour at 28° C., followed by washing with wash buffer.

[3] = Simulated Intestinal Fluid Assay; settings: for half-life: simulated gi fluid
Procedure: Studies were carried out in simulated intestinal fluid (SIF) to evaluate the intestinal stability of the peptide molecules of the peptides of the instant disclosure. A Fasted State Simulated Intestinal Fluid (FaSSIF) reagent was prepared according to methods known in the art (including addition of the enzyme pancreatin), to which stock peptide solutions were added, incubated, quenched, and analyzed using LCMS/MS.
Percent remaining at each time point was calculated based on the peak area response ratio of test to compound to internal standard. Half-lives were calculated by fitting to a first-order exponential decay equation using GraphPad.

Row | half-life [3] [min] | SMILES | IC50 [1] [µM] | also measured
1 |  | CC[C@H](C)[C@@H]1NC(=O)[C@H](CC(=O)O)NC(=O)[C@H](CCSC)NC(=O)[C@@H]2CCCN2C(=O)[C@@H]2CSCc3cc(cc(c3)OCCCCCCO/N=C/C(=O)N[C@@H](CCC(N)=O)C(=O)N2)CSC[C@@H](C(N)=O)NC(=O)[C@H]([C@@H](C)O)NC(=O)[C@@H]2CCCN2C1=O [SEQ ID NO: 23] (QCPMDIPTC-NH2; linker N-2-9 via X3; C-terminus assumed) | 1.32 | 
2 |  | CC(C)C[C@@H]1NC(=O)[C@H]([C@@H](C)O)NC(=O)[C@H](CC(=O)O)NC(=O)[C@H](CO)NC(=O)[C@H](CCCNC(=N)N)NC(=O)[C@@H]2CSCc3cc(cc(c3)OCCCCCCO/N=C/C(=O)N[C@@H](C)C(=O)N2)CSC[C@@H](C(N)=O)NC1=O [SEQ ID NO: 25] (ACRSDTLC-NH2; linker N-2-8 via X3; C-terminus assumed) | 79.8 | 
3 |  | CC(C)C[C@@H]1NC(=O)[C@H]([C@@H](C)O)NC(=O)[C@H](CC(=O)O)NC(=O)[C@H](CO)NC(=O)[C@H](CCCNC(=N)N)NC(=O)[C@@H]2CSCc3cc(cc(c3)CSC[C@@H](C(=O)O)NC1=O)CON=CC(=O)N[C@@H](C)C(=O)N2 [SEQ ID NO: 70] (ACRSDTLC-OH; linker N-2-8 via X2) | 111 | IC50 [2]: 111 µM
4 |  | C[C@@H](O)[C@H](NC(=O)[C@H](CC(=O)O)NC(=O)[C@@H]1CCCN1C(=O)[C@H](Cc1ccc(O)cc1)NC(=O)[C@H](CS)NC(=O)[C@H](CC(=O)O)NC(=O)[C@@H](N)CO)C(=O)N[C@@H](Cc1ccc(O)cc1)C(=O)N[C@@H](Cc1c[nH]cn1)C(=O)N[C@@H](CS)C(=O)O [SEQ ID NO. 13] (H-SDCYPDTYHC-OH) |  | Comments ([3]; FaSSIF, LCMS/MS): No peak
5 | 23.6 | CSCC[C@H](NC(=O)[C@@H](N)CO)C(=O)N[C@H]1CSSC[C@@H](C(=O)O)NC(=O)[C@H](Cc2c[nH]cn2)NC(=O)[C@H](C(C)C)NC(=O)[C@H](CCCCN)NC(=O)[C@H](Cc2ccc(O)cc2)NC(=O)[C@H](CC(C)C)NC(=O)[C@@H]2CCCN2C1=O [SEQ ID NO. 5] (H-SMCPLYKVHC-OH; disulfide 3-10) |  | 
6 | 79.4 | C[C@@H](O)[C@@H]1NC(=O)[C@H](CC(=O)O)NC(=O)[C@@H]2CCCN2C(=O)[C@H](Cc2ccc(O)cc2)NC(=O)[C@@H](NC(=O)[C@H](CC(=O)O)NC(=O)[C@@H](N)CO)CSSC[C@@H](C(N)=O)NC(=O)[C@H](Cc2c[nH]cn2)NC(=O)[C@H](Cc2ccc(O)cc2)NC1=O [SEQ ID NO. 14] (H-SDCYPDTYHC-NH2; disulfide 3-10) |  | 
